In brackets after ≈: the same amount, converted by molar mass.
What was measured:
Rattus norvegicus [1] = test: Anti-inflammatory activity against carrageenan-induced acute paw edema in Wistar albino rat at 100 mg/kg assessed as inhibition of paw edema volume incubated for 3 hrs by Plethysmometric analysis relative to control; format: functional; design: scale not given: the % may be the effect or the level left
[2] = Cytotoxicity activity against human PC-3 cells assessed as reduction in cell viability measured after 48 hrs by MTT assay; format: toxicity, cell-based
[3] = Cytotoxicity activity against human SMMC-7721 cells assessed as reduction in cell viability measured after 48 hrs by MTT assay; format: toxicity, cell-based
[4] = Cytotoxicity activity against human Eca-109 cells assessed as reduction in cell viability measured after 48 hrs by MTT assay; format: toxicity, cell-based
[5] = test system: Mycobacterium tuberculosis; test: Antitubercular activity against Mycobacterium tuberculosis 103471 assessed as reduction in bacterial growth; format: functional
[6] = test system: Human immunodeficiency virus; test: Antiviral activity against HIV-CBL 20 infected in MT-4 cells assessed as viral replication measured after 4 days by ELISA; format: functional, organism-based; conditions: Human immunodeficiency virus 1, CBL 20, MT4, 96 h
Cannabinoid receptor 1 = Cannabinoid receptor 1 (Rattus norvegicus, UniProt P20272); test: Binding affinity to rat CB1 receptor
Cannabinoid receptor 2 = Cannabinoid receptor 2 (Homo sapiens, UniProt P34972); test: Binding affinity to human recombinant CB2 receptor
[7] = test system: Mycobacterium tuberculosis; test: Antitubercular activity against Mycobacterium tuberculosis H37Rv assessed as reduction in bacterial growth by microplate alamar blue assay; format: functional
[8] = target: Tyrosine-protein kinase Lck (Homo sapiens, UniProt P06239); test: Inhibition of human recombinant Lck
[9] = test system: Human immunodeficiency virus 1; test: Antiviral activity against HIV-1; format: functional, organism-based
[10] = test system: Mycobacterium tuberculosis; test: Antitubercular activity against Mycobacterium tuberculosis H37Rv assessed as reduction in microbial growth by broth dilution method; format: functional
[11] = Toxicity in Nilaparvata lugens assessed as mortality at 0.8 mg/L relative to control; conditions: at 0.8 µg/mL
Rattus norvegicus [12] = test: Anti-inflammatory activity against carrageenan-induced acute paw edema in Wistar albino rat at 10 mg/kg assessed as inhibition of paw edema volume incubated for 3 hrs by Plethysmometric analysis relative to control; format: functional; design: scale not given: the % may be the effect or the level left
Rattus norvegicus [13] = test: Antihypertensive activity in Wistar rat assessed as decrease in systolic blood pressure at 20 mg/kg, po measured after 0.5 to 2 hrs by tail cuff method; format: functional; conditions: time 0.5-2 hrs
[14] = Inhibition of maize HD1-A; design: species or system Zea mays
[15] = Inhibition of maize HD1-B; design: species or system Zea mays
[16] = Inhibition of maize HD2; design: species or system Zea mays
Klebsiella pneumoniae [17] = test: Antibacterial activity against Klebsiella pneumoniae assessed as reduction in bacterial growth by broth microdilution method; format: functional, organism-based
Pseudomonas aeruginosa = test: Antibacterial activity against Pseudomonas aeruginosa assessed as reduction in bacterial growth by broth microdilution method; format: functional, organism-based
Bacillus subtilis [18] = test: Antibacterial activity against Bacillus subtilis assessed as reduction in bacterial growth by broth microdilution method; format: functional, organism-based
Escherichia coli [19] = test: Antibacterial activity against Escherichia coli assessed as reduction in bacterial growth by broth microdilution method; format: functional, organism-based
[20] = test system: Staphylococcus auricularis; test: Antibacterial activity against Staphylococcus auricularis assessed as reduction in bacterial growth by broth microdilution method; format: functional, organism-based
Escherichia coli [21] = test: Antibacterial activity against Escherichia coli K12 assessed as zone of inhibition at 800 ug/mL by disk diffusion method; format: functional; conditions: read-out: IZ
Bacillus subtilis [22] = test: Antibacterial activity against Bacillus subtilis MTCC 121 assessed as zone of inhibition at 800 ug/mL by disk diffusion method; format: functional; conditions: read-out: IZ
Staphylococcus aureus = test: Antibacterial activity against Staphylococcus aureus 22 assessed as zone of inhibition at 800 ug/mL by disk diffusion method; format: functional; conditions: read-out: IZ
Klebsiella pneumoniae [23] = test: Antibacterial activity against Klebsiella pneumoniae assessed as zone of inhibition at 800 ug/mL by disk diffusion method; format: functional; conditions: read-out: IZ
Rattus norvegicus [24] = test: Anti-inflammatory activity against carrageenan-induced acute paw edema in Wistar albino rat at 10 mg/kg assessed as inhibition of paw edema incubated for 5 hrs by Plethysmometric analysis relative to control; format: functional; design: scale not given: the % may be the effect or the level left
Rattus norvegicus [25] = test: Anti-inflammatory activity against carrageenan-induced acute paw edema in Wistar albino rat at 10 mg/kg assessed as inhibition of paw edema incubated for 3 hrs by Plethysmometric analysis relative to control; format: functional; design: scale not given: the % may be the effect or the level left
[26] = Cytotoxicity activity against human A549 cells assessed as reduction in cell viability measured after 48 hrs by MTT assay; format: toxicity, cell-based
[27] = Cytotoxicity activity against human MOLT-4 cells assessed as reduction in cell viability measured after 72 hrs by MTT assay; format: toxicity, cell-based
[28] = Cytotoxicity activity against human MCF7 cells assessed as reduction in cell viability measured after 72 hrs by MTT assay; format: toxicity, cell-based
[29] = Cytotoxicity activity against human HL-60 cells assessed as reduction in cell viability measured after 72 hrs by MTT assay; format: toxicity, cell-based
MDA-MB-231 = test: Antiproliferative activity against human MDA-MB-231 cells by SRB assay

Cannabinoid receptor 2, sequence (P34972 whole entry): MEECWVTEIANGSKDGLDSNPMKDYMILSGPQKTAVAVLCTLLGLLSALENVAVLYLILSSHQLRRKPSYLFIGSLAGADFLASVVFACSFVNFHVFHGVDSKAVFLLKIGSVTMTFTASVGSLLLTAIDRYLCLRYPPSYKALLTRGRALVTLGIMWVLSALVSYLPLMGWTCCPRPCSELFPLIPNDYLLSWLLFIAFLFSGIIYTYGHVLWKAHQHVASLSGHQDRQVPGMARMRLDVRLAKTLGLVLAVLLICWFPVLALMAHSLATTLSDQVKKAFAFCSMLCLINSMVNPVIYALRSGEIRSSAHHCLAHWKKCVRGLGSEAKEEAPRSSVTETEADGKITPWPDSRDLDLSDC
Cannabinoid receptor 1, sequence (P20272 whole entry): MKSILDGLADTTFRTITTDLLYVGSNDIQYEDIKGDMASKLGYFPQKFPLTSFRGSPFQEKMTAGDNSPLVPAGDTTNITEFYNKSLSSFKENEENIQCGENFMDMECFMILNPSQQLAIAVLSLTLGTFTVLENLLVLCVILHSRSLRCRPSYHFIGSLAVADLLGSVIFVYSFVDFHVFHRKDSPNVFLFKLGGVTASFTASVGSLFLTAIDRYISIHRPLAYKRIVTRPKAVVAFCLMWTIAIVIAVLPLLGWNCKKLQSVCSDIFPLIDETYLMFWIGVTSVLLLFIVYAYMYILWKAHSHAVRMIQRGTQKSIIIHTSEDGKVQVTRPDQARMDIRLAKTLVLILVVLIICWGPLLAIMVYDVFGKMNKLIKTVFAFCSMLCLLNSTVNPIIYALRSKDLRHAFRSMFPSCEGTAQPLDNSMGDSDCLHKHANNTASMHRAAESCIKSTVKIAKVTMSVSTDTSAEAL
Tyrosine-protein kinase Lck, sequence (P06239 whole entry): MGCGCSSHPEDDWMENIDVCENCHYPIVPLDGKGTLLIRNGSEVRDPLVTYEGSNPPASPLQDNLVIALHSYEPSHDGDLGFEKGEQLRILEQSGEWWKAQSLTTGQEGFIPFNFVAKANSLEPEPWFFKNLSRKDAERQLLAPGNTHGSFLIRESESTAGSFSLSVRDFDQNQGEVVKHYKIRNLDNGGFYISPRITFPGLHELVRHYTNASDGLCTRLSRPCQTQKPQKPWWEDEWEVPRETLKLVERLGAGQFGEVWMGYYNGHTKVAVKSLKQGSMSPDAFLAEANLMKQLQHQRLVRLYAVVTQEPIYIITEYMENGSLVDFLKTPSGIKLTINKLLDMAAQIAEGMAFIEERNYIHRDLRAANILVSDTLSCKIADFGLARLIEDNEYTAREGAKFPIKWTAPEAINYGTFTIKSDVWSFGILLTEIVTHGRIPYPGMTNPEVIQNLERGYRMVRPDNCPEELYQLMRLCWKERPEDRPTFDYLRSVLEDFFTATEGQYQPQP

## O=C(O)Cn1c(C(=O)O)c(C(=O)c2cccs2)c2sc(C(=O)O)cc21
Rattus norvegicus [1]
  Activity: 36%

## CN1C(=O)C(c2ccc[nH]2)=C(c2c[nH]c3ccc(Br)cc23)C1=O
[2]
  IC50 at 48 h: 2.16 µM
[3]
  IC50 at 48 h: 29.7 µM
[4]
  IC50 at 48 h: 6.21 µM

## CN[C@@H]1[C@H](O[C@H]2[C@H](O[C@H]3[C@H](O)[C@@H](O)[C@H](N=C(N)N)[C@@H](O)[C@@H]3N=C(N)N)O[C@@H](C)[C@]2(O)C=O)O[C@@H](CO)[C@H](O)[C@H]1O [STREPTOMYCIN]
[5]
  MIC: 0.5 µg/mL (≈ 0.86 µM)

## O=[N+]([O-])c1ccccc1S(=O)(=O)c1ccccc1
[6]
  EC50: 3.4 µM

## CCCCCn1c(C)c(Br)c(C(=O)c2cccc3ccccc23)c1C
Cannabinoid receptor 1
  EC50: 0.0133 µM
Cannabinoid receptor 2
  EC50: 0.0068 µM

## O=C(N/N=C/c1ccc(C(c2cccc([N+](=O)[O-])c2)c2ccc(/C=N/NC(=O)c3ccncc3)[nH]2)[nH]1)c1ccncc1
[7]
  MIC: 7.9 µg/mL (≈ 14.1 µM)

## NC(=O)c1c(-c2ccc(Oc3ccccc3)cc2)[nH]c(C(=O)c2c(F)cccc2F)c1N
[8]
  IC50: 0.0011 µM

## CCCCc1c(COC(N)=O)cn(Cc2ccncc2)c1Sc1cc(Cl)cc(Cl)c1
[9]
  EC50: 0.007 µM

## CO[C@H]1/C=C/O[C@@]2(C)Oc3c(C)c(O)c4c(O)c(c(/C=N/N5CCN(C)CC5)c(O)c4c3C2=O)NC(=O)/C(C)=C\C=C\[C@H](C)[C@H](O)[C@@H](C)[C@@H](O)[C@@H](C)[C@H](OC(C)=O)[C@@H]1C [RIFAMPIN]
[10]
  MIC: 0.4 µg/mL
[5]
  MIC: 0.3 µg/mL (≈ 0.365 µM)

## O=[N+]([O-])NC1=NCCN1Cc1ccc(Cl)nc1 [IMIDACLOPRID]
[11]
  mortality: 40%

## O=C([O-])Cc1ccccc1Nc1c(Cl)cccc1Cl.[Na+] [DICLOFENAC SODIUM]
Rattus norvegicus [12]
  Activity: 68%

## NNC(=O)c1ccncc1 [ISONIAZID]
[10]
  MIC: 0.2 µg/mL
[7]
  MIC: 7.9 µg/mL (≈ 57.6 µM)
[5]
  MIC: 0.25 µg/mL (≈ 1.82 µM)

## CCOC(=O)c1cc(-c2ccc([N+](=O)[O-])cc2)n(-c2ccc(C3=NNC(=O)CC3)cc2)c1C
Rattus norvegicus [13]
  Activity: 70.3 mmHg

## CC(C(=O)c1cc(/C=C/C(=O)NO)n(C)c1)c1ccccc1 (configuration not stated)
[14]
  IC50: 0.028 µM
[15]
  IC50: 0.015 µM
[16]
  IC50: 0.112 µM

## Cc1c[nH]c(C(=O)N/N=C(/N=N/c2ccccc2)c2ccccc2O)c1C
Klebsiella pneumoniae [17]
  IC50: 15.6 µM
Pseudomonas aeruginosa
  IC50: 15.6 µM
Bacillus subtilis [18]
  IC50: 460 µM
Escherichia coli [19]
  IC50: 15.6 µM
[20]
  IC50: 460 µM

## CCCCCCC(O)C/C=C/CCCCCCCCC(=O)Nn1c(C)ccc1C (configuration not stated)
Escherichia coli [21]
  zone of inhibition at 800 µg/mL: 21 mm
Bacillus subtilis [22]
  zone of inhibition at 800 µg/mL: 19 mm
Staphylococcus aureus
  zone of inhibition at 800 µg/mL: 18 mm
Klebsiella pneumoniae [23]
  zone of inhibition at 800 µg/mL: 20 mm

## NC(=O)N1C(=O)/C(=C(\[O-])c2cccs2)c2cc(Cl)ccc21.[Na+] [TENIDAP SODIUM]
Rattus norvegicus [12]
  Activity: 60%

## Cc1ccc(C)n1-c1ccc(C(=O)n2[nH]c(=O)c3ccccc3c2=O)cc1
[10]
  MIC: 0.4 µg/mL

## O=C(Nc1nnc(-c2ccccc2)s1)c1c[nH]cc1-c1ccc([N+](=O)[O-])cc1
Rattus norvegicus [24]
  Activity: 78.62%
Rattus norvegicus [25]
  Activity: 76.24%

## CCOc1cc(C2OC(c3ccc(-n4cccc4)cc3)=NN2C(C)=O)ccc1O (configuration not stated)
[10]
  MIC: 0.2 µg/mL

## O=C1NC(=O)C(c2c[nH]c3ccccc23)=C1c1c[nH]c2ccccc12 [RO-316233]
[2]
  IC50 at 48 h: 10.3 µM
[3]
  IC50 at 48 h: 13.2 µM
[4]
  IC50 at 48 h: 15.9 µM
[26]
  IC50 at 48 h: 4.14 µM

## Cc1c(CN2CCSCC2)cc(-c2ccccc2F)n1-c1ccccc1F
[5]
  MIC: 1 µg/mL (≈ 2.6 µM)

## CN(C)[C@@H]1C(O)=C(C(N)=O)C(=O)[C@@]2(O)C(O)=C3C(=O)c4c(O)cccc4[C@@](C)(O)[C@H]3C[C@@H]12 [TETRACYCLINE]
Klebsiella pneumoniae [17]
  IC50: 0.312 µM
Pseudomonas aeruginosa
  IC50: 1.25 µM
Bacillus subtilis [18]
  IC50: 1.25 µM
Escherichia coli [19]
  IC50: 10 µM
[20]
  IC50: 10 µM

## COC(=O)c1c(C2C(=O)N(C)C(=O)N(C)C2=O)c(-c2ccccc2)n(-c2ccc(OC)c(S(=O)(=O)N3CCOCC3)c2)c1C(=O)OC
[27]
  IC50 at 72 h: 25.5 µM
[28]
  IC50 at 72 h: 39 µM
[29]
  IC50 at 72 h: 30.6 µM

## CC[C@@H](CO)NCCN[C@@H](CC)CO [ETHAMBUTOL]
[10]
  MIC: 0.5 µg/mL

## CCOC(=O)c1cccn1S(=O)(=O)c1ccccc1[N+](=O)[O-]
[6]
  EC50: 15.1 µM

## O=C(O)c1cn(C2CC2)c2cc(N3CCNCC3)c(F)cc2c1=O [CIPROFLOXACIN]
Bacillus subtilis [22]
  zone of inhibition at 800 µg/mL: 18 mm
Staphylococcus aureus
  zone of inhibition at 800 µg/mL: 20 mm
Klebsiella pneumoniae [23]
  zone of inhibition at 800 µg/mL: 23 mm

## CC(/C=C/C(=O)NO)=C\[C@@H](C)C(=O)c1ccc(N(C)C)cc1 [TRICHOSTATIN]
[14]
  IC50: 0.0008 µM
[15]
  IC50: 0.0004 µM
[16]
  IC50: 0.007 µM

## COc1cc2c(c(OC)c1OC)-c1ccc(OC)c(=O)cc1[C@@H](NC(C)=O)CC2 [COLCHICINE]
MDA-MB-231
  IC50: 2 µM

## CCCC/C=C/CCC(O)CCCCCCCC(=O)Nn1c(C)ccc1C (configuration not stated)
Escherichia coli [21]
  zone of inhibition at 800 µg/mL: 22 mm
Bacillus subtilis [22]
  zone of inhibition at 800 µg/mL: 18 mm
Staphylococcus aureus
  zone of inhibition at 800 µg/mL: 20 mm
Klebsiella pneumoniae [23]
  zone of inhibition at 800 µg/mL: 21 mm

## NNc1nncc2ccccc12 [HYDRALAZINE]
Rattus norvegicus [13]
  Activity: 83.59 mmHg

## COc1ccc2c(c1)c(CC(=O)O)c(C)n2C(=O)c1ccc(Cl)cc1 [INDOMETHACIN]
Rattus norvegicus [24]
  Activity: 80.32%
Rattus norvegicus [25]
  Activity: 74.82%

## CCOc1c([N+](=O)[O-])c2n(c1C)CCN2Cc1cnc(Cl)s1
[11]
  mortality: 50%

## CN1C(C(=O)Nc2ccccn2)=C(O)c2ccccc2S1(=O)=O [PIROXICAM]
Rattus norvegicus [12]
  Activity: 59%

From ChEMBL document CHEMBL5244216, “Pyrrole: An insight into recent pharmacological advances with structure activity relationship” (Eur J Med Chem, 2018)
